Test results published in US10407467B2, “Polymyxin derivatives and their use in combination therapy together with different antibiotics” (priority 2013, dated 2019).
Where two headings read alike, the source gives them in different places. Marks after values point to notes of the source that are not given here.

Experiments:
Acinetobacter baumannii [1] = assay: MIC, compound in combination with a second agent (broth microdilution); assay type: cell-based
Summary of the method: (§1)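 MIC = combined concentration of test compound plus partner agent, mixed at equal mass (1:1 w/w, salt form as used). Up to four strains per species; colonies adjusted to 0.5 McFarland. Run in duplicate; >2-fold disagreement invalidates the run.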

Escherichia coli [2] = assay: as above; assay type: cell-based
Summary of the method: as §1

Klebsiella pneumoniae [3] = assay: as above; assay type: cell-based; settings: for MIC K. pneumoniae ATCC 4352 / MIC K. pneumoniae CCUG 59349: total drug concentration
Summary of the method: as §1

Pseudomonas aeruginosa [4] = assay: as above; assay type: cell-based; settings: for MIC P. aeruginosa ATCC 10145: total drug concentration
Summary of the method: as §1

Acinetobacter baumannii [5] = assay: MIC, sole activity (no second agent); assay type: cell-based
Summary of the method: (§2)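 First, isolated colonies grown 18-24 hours on Mueller-Hinton agar were suspended to 0.5 McFarland; next, up to four strains per pathogen were tested in duplicate in cation-adjusted MHB; finally, the lower concordant value or modal repeat value was reported against Polymyxin B.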

Escherichia coli [6] = assay: MIC, sole activity (no second agent); assay type: cell-based
Summary of the method: as §2

Klebsiella pneumoniae [7] = assay: MIC, sole activity (no second agent); assay type: cell-based
Summary of the method: as §2

Pseudomonas aeruginosa [8] = assay: MIC, sole activity (no second agent); assay type: cell-based
Summary of the method: as §2

[9] = system: Escherichia coli isolate ATCC25922; settings: subcutaneous BID
Experimental: At 1 h, the CFU count was determined from 5 mice and the remaining mice (five per group) were treated with a subcutaneous injection of the drug at +1 and 6 hr post-infection.
Twenty-four hours after infection, the mice were euthanized humanely. The muscle of the right thigh of each animal was harvested, homogenized, serially diluted and plated on Brain Heart Infusion agar+0.5% charcoal (w/v) for CFU determination. Decrease of the total CFU of right thigh as compared to control counts at 24 h post-infection was determined for each dose group.

[10] = 1:1 combination with Aztreonam, total drug concentration
[11] = Table 6A, no second agent, different supplier of Cation-adjusted MHB

Polymyxin B [reference compound]
≤0.06 micrograms/mL: MIC K. pneumoniae ATCC 4352 (Klebsiella pneumoniae [3]; 1:1 combination with Aztreonam)
4 micrograms/mL: MIC K. pneumoniae ATCC 4352 (Klebsiella pneumoniae [3]; K. pneumoniae ATCC4352, 1:1 combination with Oxacillin)
0.25 micrograms/mL: MIC A. baumannii CCUG57249 (Acinetobacter baumannii [1]; 1:1 (wt:wt) combination with Rifampicin, MIC = total drug concentration, strain CCUG57249) | MIC E. coli ATCC25922 (Escherichia coli [2]; 1:1 (wt:wt) combination with Rifampicin, MIC = total drug concentration, strain ATCC25922) | MIC E. coli ATCC25922 (Escherichia coli [2]; E. coli ATCC25922, 1:1 combination with Azithromycin, total drug concentration) | MIC K. pneumoniae ATCC 4352 (Klebsiella pneumoniae [3]; K. pneumoniae ATCC4352, 1:1 combination with Azithromycin) | MIC K. pneumoniae ATCC 4352 (Klebsiella pneumoniae [3]; K. pneumoniae ATCC4352, 1:1 combination with Novobiocin) | MIC P. aeruginosa ATCC CRM-9027 (Pseudomonas aeruginosa [4]; 1:1 (wt:wt) combination with Rifampicin, MIC = total drug concentration, strain ATCC CRM-9027) | MIC A. baumannii ATCC BAA-747 (Acinetobacter baumannii [5]; [11]) | MIC E. coli ATCC25922 (Escherichia coli [6]; [11]) | MIC E. coli NCTC 13441 (Escherichia coli [6]; [11]) | MIC K. pneumoniae ATCC 4352 (Klebsiella pneumoniae [7]; [11]) | MIC P. aeruginosa ATCCCRM-9027 (Pseudomonas aeruginosa [8]; in the absence of Rifampicin, strain ATCCCRM-9027)
3.75 log10 CFU: Mean log10 CFU reduction vs. control ([9]; Table 11A, separate study, total daily dosage 3 mg/kg (sulfate salt))
2 micrograms/mL: MIC E. coli ATCC25922 (Escherichia coli [2]; E. coli ATCC25922, 1:1 combination with Fusidic acid, total drug concentration) | MIC E. coli ATCC25922 (Escherichia coli [2]; E. coli ATCC25922, 1:1 combination with Oxacillin, total drug concentration) | MIC K. pneumoniae CCUG 59349 (Klebsiella pneumoniae [3]; 1:1 combination with Aztreonam) | MIC K. pneumoniae CCUG 59349 (Klebsiella pneumoniae [3]; K. pneumoniae CCUG 59349, 1:1 combination with Azithromycin) | MIC K. pneumoniae ATCC-BAA2146 (Klebsiella pneumoniae [7]; in the absence of Rifampicin, strain ATCC-BAA2146) | MIC P. aeruginosa ATCC-47 (Pseudomonas aeruginosa [8]; in the absence of Rifampicin, strain ATCC-47)
4.2 ^a log10 CFU: Mean log10 CFU reduction vs. control ([9]; Table 11, total daily dosage 10 mg/kg (sulfate salt), 24 h post-infection)
4.87 log10 CFU: Mean log10 CFU reduction vs. control ([9]; Table 11A, separate study, total daily dosage 10 mg/kg (sulfate salt))
16 micrograms/mL: MIC K. pneumoniae CCUG-59348 (Klebsiella pneumoniae [7]; in the absence of Rifampicin, strain CCUG-59348)
2.5 ^a log10 CFU: Mean log10 CFU reduction vs. control ([9]; Table 11, total daily dosage 3 mg/kg (sulfate salt), 24 h post-infection)
0.125 micrograms/mL: MIC A. baumannii ATCC BAA-747 (Acinetobacter baumannii [1]; 1:1 (wt:wt) combination with Rifampicin, MIC = total drug concentration, strain ATCC BAA-747) | MIC A. baumannii NCTC 13423 (Acinetobacter baumannii [1]; 1:1 (wt:wt) combination with Rifampicin, MIC = total drug concentration, strain NCTC 13423) | MIC A. baumannii NCTC 13424 (Acinetobacter baumannii [1]; A. baumannii NCTC 13424, 1:1 combination with Novobiocin, total drug concentration) | MIC E. coli ATCC25922 (Escherichia coli [2]; [10]) | MIC A. baumannii NCTC 13424 (Acinetobacter baumannii [5]; Second Agent none (Table 7E)) | MIC A. baumannii NCTC 13424 (Acinetobacter baumannii [5]; Table 7F, A. baumannii NCTC 13424, second agent none) | MIC A. baumannii NCTC 13424 (Acinetobacter baumannii [5]; Table 7H, A. baumannii NCTC 13424, second agent none)
1 micrograms/mL: MIC A. baumannii NCTC 13424 (Acinetobacter baumannii [1]; [10]) | MIC A. baumannii NCTC 13424 (Acinetobacter baumannii [1]; A. baumannii NCTC 13424, 1:1 combination with Azithromycin, total drug concentration) | MIC E. coli NCTC 13441 (Escherichia coli [2]; [10]) | MIC E. coli NCTC 13441 (Escherichia coli [2]; E. coli NCTC 13441, 1:1 combination with Azithromycin, total drug concentration) | MIC E. coli NCTC 13441 (Escherichia coli [2]; E. coli NCTC 13441, 1:1 combination with Novobiocin, total drug concentration) | MIC K. pneumoniae ATCC-BAA-2146 (Klebsiella pneumoniae [3]; 1:1 (wt:wt) combination with Rifampicin, MIC = total drug concentration, strain ATCC-BAA-2146) | MIC K. pneumoniae CCUG-59348 (Klebsiella pneumoniae [3]; 1:1 (wt:wt) combination with Rifampicin, MIC = total drug concentration, strain CCUG-59348) | MIC K. pneumoniae NCTC 13438 (Klebsiella pneumoniae [3]; 1:1 (wt:wt) combination with Rifampicin, MIC = total drug concentration, strain NCTC 13438) | MIC K. pneumoniae ATCC 4352 (Klebsiella pneumoniae [3]; K. pneumoniae ATCC4352, 1:1 combination with Fusidic acid) | MIC K. pneumoniae CCUG 59349 (Klebsiella pneumoniae [3]; K. pneumoniae CCUG 59349, 1:1 combination with Novobiocin) | MIC P. aeruginosa ATCC 10145 (Pseudomonas aeruginosa [4]; 1:1 combination with Aztreonam) | MIC P. aeruginosa ATCC 10145 (Pseudomonas aeruginosa [4]; P. aeruginosa ATCC 10145, 1:1 combination with Azithromycin) | MIC P. aeruginosa ATCC 10145 (Pseudomonas aeruginosa [4]; P. aeruginosa ATCC 10145, 1:1 combination with Novobiocin) | MIC A. baumannii ATCC13424 (Acinetobacter baumannii [5]; in the absence of Rifampicin, strain ATCC13424) | MIC A. baumannii CCUG57249 (Acinetobacter baumannii [5]; in the absence of Rifampicin, strain CCUG 57249) | MIC E. coli NCTC 13441 (Escherichia coli [6]; Second Agent none (Table 7E)) | MIC E. coli NCTC 13441 (Escherichia coli [6]; Table 7F, E. coli NCTC 13441, second agent none) | MIC E. coli NCTC 13441 (Escherichia coli [6]; Table 7H, E. coli NCTC 13441, second agent none) | MIC E. coli ATCC25922 (Escherichia coli [6]; in the absence of Rifampicin, strain ATCC25922) | MIC E. coli NCTC9001 (Escherichia coli [6]; in the absence of Rifampicin, strain NCTC9001) | MIC K. pneumoniae ATCC 4352 (Klebsiella pneumoniae [7]; in the absence of Rifampicin, strain ATCC 4352) | MIC K. pneumoniae NCTC-13438 (Klebsiella pneumoniae [7]; in the absence of Rifampicin, strain NCTC-13438)
0.5 micrograms/mL: MIC A. baumannii NCTC 13424 (Acinetobacter baumannii [1]; 1:1 (wt:wt) combination with Rifampicin, MIC = total drug concentration, strain NCTC 13424) | MIC E. coli NCTC9001 (Escherichia coli [2]; 1:1 (wt:wt) combination with Rifampicin, MIC = total drug concentration, strain NCTC9001) | MIC E. coli ATCC25922 (Escherichia coli [2]; E. coli ATCC25922, 1:1 combination with Novobiocin, total drug concentration) | MIC P. aeruginosa ATCC 27853 (Pseudomonas aeruginosa [4]; 1:1 (wt:wt) combination with Rifampicin, MIC = total drug concentration, strain ATCC 27853) | MIC P. aeruginosa ATCC-47 (Pseudomonas aeruginosa [4]; 1:1 (wt:wt) combination with Rifampicin, MIC = total drug concentration, strain ATCC-47) | MIC P. aeruginosa CCUG 59626 (Pseudomonas aeruginosa [4]; 1:1 (wt:wt) combination with Rifampicin, MIC = total drug concentration, strain CCUG 59626) | MIC A. baumannii NCTC 13424 (Acinetobacter baumannii [5]; [11]) | MIC A. baumannii ATCCBAA-747 (Acinetobacter baumannii [5]; in the absence of Rifampicin, strain ATCCBAA-747) | MIC A. baumannii NCTC 13423 (Acinetobacter baumannii [5]; in the absence of Rifampicin, strain NCTC13423) | MIC E. coli ATCC25922 (Escherichia coli [6]; Second Agent none (Table 7E)) | MIC E. coli ATCC25922 (Escherichia coli [6]; Table 7F, E. coli ATCC25922, second agent none) | MIC E. coli ATCC25922 (Escherichia coli [6]; Table 7G, E. coli ATCC25922, second agent none) | MIC E. coli ATCC25922 (Escherichia coli [6]; Table 7H, E. coli ATCC25922, second agent none) | MIC E. coli ATCC25922 (Escherichia coli [6]; Table 7I, E. coli ATCC25922, second agent none) | MIC K. pneumoniae CCUG 59349 (Klebsiella pneumoniae [7]; Second Agent none (Table 7E)) | MIC K. pneumoniae ATCC BAA-2146 (Klebsiella pneumoniae [7]; [11]) | MIC K. pneumoniae CCUG 59349 (Klebsiella pneumoniae [7]; Table 7F, K. pneumoniae CCUG 59349, second agent none) | MIC K. pneumoniae CCUG 59349 (Klebsiella pneumoniae [7]; Table 7H, K. pneumoniae CCUG 59349, second agent none) | MIC P. aeruginosa ATCC 10145 (Pseudomonas aeruginosa [8]; Second Agent none (Table 7E)) | MIC P. aeruginosa ATCC 27853 (Pseudomonas aeruginosa [8]; [11]) | MIC P. aeruginosa CCUG 59347 (Pseudomonas aeruginosa [8]; [11]) | MIC P. aeruginosa ATCC 10145 (Pseudomonas aeruginosa [8]; Table 7F, P. aeruginosa ATCC 10145, second agent none) | MIC P. aeruginosa ATCC 10145 (Pseudomonas aeruginosa [8]; Table 7H, P. aeruginosa ATCC 10145, second agent none) | MIC P. aeruginosa ATCC 27853 (Pseudomonas aeruginosa [8]; in the absence of Rifampicin, strain ATCC27853) | MIC P. aeruginosa CCUG 59626 (Pseudomonas aeruginosa [8]; in the absence of Rifampicin, strain CCUG 59626)
